Assays:
Assay type in all cases: functional
MDA-MB-468 [1] = experiment: Cytotoxicity against human MDA-MB-468 cells assessed as cell growth at 10 uM after 48 hrs by sulforhodamine B assay relative to control; settings: MDA-MB-468, 48 h, read-out: Activity
HL-60(TB) = experiment: Cytotoxicity against human HL-60(TB) cells assessed as cell growth at 0.01 uM after 48 hrs by sulforhodamine B assay relative to control; settings: HL-60, 48 h, read-out: Activity
COLO 205 = experiment: Cytotoxicity against human COLO205 cells assessed as cell growth at 10 uM after 48 hrs by sulforhodamine B assay relative to control; settings: COLO 205, 48 h, read-out: Activity
SK-MEL-5 [2] = experiment: Cytotoxicity against human SK-MEL-5 cells assessed as cell growth at 1 uM after 48 hrs by sulforhodamine B assay relative to control; settings: SK-MEL-5, 48 h, read-out: Activity
A498 = experiment: Cytotoxicity against human A498 cells assessed as cell growth at 10 uM after 48 hrs by sulforhodamine B assay relative to control; settings: A498, 48 h, read-out: Activity
A549 = experiment: Cytotoxicity against human A549/ATCC cells assessed as cell growth at 100 uM after 48 hrs by sulforhodamine B assay relative to control; settings: A549, 48 h, read-out: Activity
OVCAR-8 [3] = experiment: Cytotoxicity against human OVCAR8 cells assessed as cell growth at 0.01 uM after 48 hrs by sulforhodamine B assay relative to control; settings: OVCAR-8, 48 h, read-out: Activity
MOLT-4 = experiment: Cytotoxicity against human MOLT4 cells assessed as cell growth at 0.1 uM after 48 hrs by sulforhodamine B assay relative to control; settings: MOLT-4, 48 h, read-out: Activity
BT-549 = experiment: Cytotoxicity against human BT549 cells assessed as cell growth at 0.1 uM after 48 hrs by sulforhodamine B assay relative to control; settings: BT-549, 48 h, read-out: Activity
UACC-62 = experiment: Cytotoxicity against human UACC62 cells assessed as cell growth at 0.01 uM after 48 hrs by sulforhodamine B assay relative to control; settings: UACC-62, 48 h, read-out: Activity
SK-OV-3 = experiment: Cytotoxicity against human SKOV3 cells assessed as cell growth at 10 uM after 48 hrs by sulforhodamine B assay relative to control; settings: SK-OV-3, 48 h, read-out: Activity
NCI-H23 = experiment: Cytotoxicity against human NCI-H23 cells assessed as cell growth at 0.1 uM after 48 hrs by sulforhodamine B assay relative to control; settings: NCI-H23, 48 h, read-out: Activity
SF-539 = experiment: Cytotoxicity against human SF539 cells assessed as growth inhibition after 48 hrs by sulforhodamine B assay; settings: SF-539, 48 h
IGROV-1 = experiment: Cytotoxicity against human IGROV1 cells assessed as cell growth at 100 uM after 48 hrs by sulforhodamine B assay relative to control; settings: IGROV-1, 48 h, read-out: Activity
Hs-578T = experiment: Cytotoxicity against human Hs 578T cells assessed as cell growth at 10 uM after 48 hrs by sulforhodamine B assay relative to control; settings: read-out: Activity
OVCAR-3 [4] = experiment: Cytotoxicity against human OVCAR3 cells assessed as cell growth at 1 uM after 48 hrs by sulforhodamine B assay relative to control; settings: OVCAR-3, 48 h, read-out: Activity
OVCAR-3 [5] = experiment: Cytotoxicity against human OVCAR3 cells assessed as cell growth at 100 uM after 48 hrs by sulforhodamine B assay relative to control; settings: OVCAR-3, 48 h, read-out: Activity
RXF 393 = experiment: Cytotoxicity against human RXF393 cells assessed as cell growth at 100 uM after 48 hrs by sulforhodamine B assay relative to control; settings: RXF 393, 48 h, read-out: Activity
NCI-H322M = experiment: Cytotoxicity against human NCI-H322M cells assessed as cell growth at 1 uM after 48 hrs by sulforhodamine B assay relative to control; settings: read-out: Activity
OVCAR-3 [6] = experiment: Cytotoxicity against human OVCAR3 cells assessed as cell growth at 10 uM after 48 hrs by sulforhodamine B assay relative to control; settings: OVCAR-3, 48 h, read-out: Activity
UO-31 = experiment: Cytotoxicity against human UO31 cells assessed as cell growth at 1 uM after 48 hrs by sulforhodamine B assay relative to control; settings: UO-31, 48 h, read-out: Activity
HCT-15 = experiment: Cytotoxicity against human HCT15 cells assessed as cell growth at 0.01 uM after 48 hrs by sulforhodamine B assay relative to control; settings: HCT-15, 48 h, read-out: Activity
MDA-MB-468 [7] = experiment: Cytotoxicity against human MDA-MB-468 cells assessed as cell growth at 1 uM after 48 hrs by sulforhodamine B assay relative to control; settings: MDA-MB-468, 48 h, read-out: Activity
OVCAR-5 [8] = experiment: Cytotoxicity against human OVCAR5 cells assessed as cell growth at 0.1 uM after 48 hrs by sulforhodamine B assay relative to control; settings: OVCAR-5, 48 h, read-out: Activity
RPMI-8226 = experiment: Cytotoxicity against human RPMI8226 cells assessed as cell growth at 0.1 uM after 48 hrs by sulforhodamine B assay relative to control; settings: RPMI-8226, 48 h, read-out: Activity
SK-MEL-28 = experiment: Cytotoxicity against human SK-MEL-28 cells assessed as cell growth at 1 uM after 48 hrs by sulforhodamine B assay relative to control; settings: SK-MEL-28, 48 h, read-out: Activity
K562 = experiment: Cytotoxicity against human K562 cells assessed as cell growth at 10 uM after 48 hrs by sulforhodamine B assay relative to control; settings: K562, 48 h, read-out: Activity
OVCAR-8 [9] = experiment: Cytotoxicity against human OVCAR8 cells assessed as cell growth at 0.1 uM after 48 hrs by sulforhodamine B assay relative to control; settings: OVCAR-8, 48 h, read-out: Activity
TK-10 [10] = experiment: Cytotoxicity against human TK10 cells assessed as cell growth at 1 uM after 48 hrs by sulforhodamine B assay relative to control; settings: TK-10, 48 h, read-out: Activity
OVCAR-5 [11] = experiment: Cytotoxicity against human OVCAR5 cells assessed as cell growth at 1 uM after 48 hrs by sulforhodamine B assay relative to control; settings: OVCAR-5, 48 h, read-out: Activity
HCC 2998 = experiment: Cytotoxicity against human HCC2998 cells assessed as cell growth at 0.01 uM after 48 hrs by sulforhodamine B assay relative to control; settings: HCC 2998, 48 h, read-out: Activity
NCI/ADR-RES = experiment: Cytotoxicity against human NCI/ADR-RES cells assessed as cell growth at 0.01 uM after 48 hrs by sulforhodamine B assay relative to control; settings: read-out: Activity
SK-MEL-5 [12] = experiment: Cytotoxicity against human SK-MEL-5 cells assessed as growth inhibition after 48 hrs by sulforhodamine B assay; settings: SK-MEL-5, 48 h
OVCAR-4 = experiment: Cytotoxicity against human OVCAR4 cells assessed as cell growth at 0.01 uM after 48 hrs by sulforhodamine B assay relative to control; settings: OVCAR-4, 48 h, read-out: Activity
TK-10 [13] = experiment: Cytotoxicity against human TK10 cells assessed as cell growth at 0.01 uM after 48 hrs by sulforhodamine B assay relative to control; settings: TK-10, 48 h, read-out: Activity

Row | Structure (SMILES) | growth at 10 µM (MDA-MB-468 [1]) | growth at 0.01 µM (HL-60(TB)) | growth at 10 µM (COLO 205) | growth at 1 µM (SK-MEL-5 [2]) | growth at 10 µM (A498) | growth at 100 µM (A549) | growth at 0.01 µM (OVCAR-8 [3]) | growth at 0.1 µM (MOLT-4) | growth at 0.1 µM (BT-549) | growth at 0.01 µM (UACC-62) | growth at 10 µM (SK-OV-3) | growth at 0.1 µM (NCI-H23) | GI50 (SF-539) | LC50 (concentration killing 50% of cells) (SF-539) | TGI (SF-539) | growth at 100 µM (IGROV-1) | growth at 10 µM (Hs-578T) | growth at 1 µM (OVCAR-3 [4]) | growth at 100 µM (OVCAR-3 [5]) | growth at 100 µM (RXF 393) | further results
1 | COc1ccc(-c2cc(/C=C/C(=O)c3ccc(N)cc3)[nH]n2)cc1 | -62% | 96% | -86% | 90% | -39% | -75% | 96% | 98% | 96% | 96% | 23% | 94% | 1.47 µM | 8.25 µM | 3.48 µM | -67% | 22% | 63% | -85% | -63% | growth at 1 µM (NCI-H322M): 69%; growth at 10 µM (OVCAR-3 [6]): -70%; growth at 1 µM (UO-31): 61%; growth at 0.01 µM (HCT-15): 97%; growth at 1 µM (MDA-MB-468 [7]): 29%; growth at 0.1 µM (OVCAR-5 [8]): 95%; growth at 0.1 µM (RPMI-8226): 100%; growth at 1 µM (SK-MEL-28): 91%; growth at 10 µM (K562): 4%; growth at 0.1 µM (OVCAR-8 [9]): 100%; growth at 1 µM (TK-10 [10]): 81%; growth at 1 µM (OVCAR-5 [11]): 92%; growth at 0.01 µM (HCC 2998): 96%; growth at 0.01 µM (NCI/ADR-RES): 101%; GI50 (SK-MEL-5 [12]): 2.71 µM; LC50 (concentration killing 50% of cells) (SK-MEL-5 [12]): 30.4 µM; TGI (SK-MEL-5 [12]): 9.25 µM; growth at 0.01 µM (OVCAR-4): 88%; growth at 0.01 µM (TK-10 [13]): 93%
2 | COc1ccc(-c2cc(/C=C/C(=O)c3ccc(N)cc3)[nH]n2)cc1OC | -65% | 104% | -79% | 94% | -16% | -76% | 98% | 106% | 92% | 99% | 29% | 103% | 1.73 µM | 7.19 µM | 3.53 µM | -62% | 40% | 92% | -99% | -95% | growth at 1 µM (NCI-H322M): 95%; growth at 10 µM (OVCAR-3 [6]): -56%; growth at 1 µM (UO-31): 86%; growth at 0.01 µM (HCT-15): 93%; growth at 1 µM (MDA-MB-468 [7]): 77%; growth at 0.1 µM (OVCAR-5 [8]): 95%; growth at 0.1 µM (RPMI-8226): 96%; growth at 1 µM (SK-MEL-28): 89%; growth at 10 µM (K562): 3%; growth at 0.1 µM (OVCAR-8 [9]): 99%; growth at 1 µM (TK-10 [10]): 107%; growth at 1 µM (OVCAR-5 [11]): 94%; growth at 0.01 µM (HCC 2998): 102%; growth at 0.01 µM (NCI/ADR-RES): 102%; GI50 (SK-MEL-5 [12]): 3.16 µM; LC50 (concentration killing 50% of cells) (SK-MEL-5 [12]): 36.1 µM; TGI (SK-MEL-5 [12]): 11.5 µM; growth at 0.01 µM (OVCAR-4): 85%; growth at 0.01 µM (TK-10 [13]): 102%
